In brackets after ≈: the same amount, converted by molar mass. Like-named read-outs stand apart in the source and are kept apart here.
How the values were obtained:
Type in all cases: cell-based
E. cloacae ATCC 13047 [1] = assay: MIC, broth microdilution (CLSI), CAMHB; conditions: monosubstance, Ecl ATCC13047
Experimental: (§1) MIC-testing was done immediately after preparation of the dilutions. All tests were done in duplicate and repeated once on a separate occasion.
(§2) 1 mL of the bacterial suspension was transferred into a tube containing 10 mL CAMHB and was vortexed thoroughly. (S. pneumoniae 1 mL in 10 mL CAMHB+5% lysed horse blood). Columns 1-15 of the 96-well plate were inoculated with 5 μL of this suspension (1-15=antibacterial solution, 16=sterile medium without test item).
(§3) Turbidity was read visually with a mirror.

[2] = tested on: E. coli NRZ-00401 (metallo β-lactamase VIM-1); assay: MIC, broth microdilution (CLSI), CAMHB; conditions: monosubstance, Ec NRZ00401
Experimental: as §1, §2, §3

E. faecium DSMZ 2146 = assay: MIC, broth microdilution (CLSI), CAMHB; conditions: Enterococcus faecium; monosubstance; Efc DSMZ2146; read-out: MIC
Experimental: as §1, §2, §3

[3] = tested on: E. faecium UW 3695 (linezolid and quinolone-resistant); assay: MIC, broth microdilution (CLSI), CAMHB; conditions: Enterococcus faecium; monosubstance; Efc UW3695; read-out: MIC
Experimental: as §1, §2, §3

K. pneumoniae ATCC 13883 = assay: MIC, broth microdilution (CLSI), CAMHB; conditions: monosubstance, Kp ATCC13883
Experimental: as §1, §2, §3

[4] = tested on: S. aureus NRS-119 (MRSA, linezolid- and quinolone-resistant); assay: MIC, broth microdilution (CLSI), CAMHB; conditions: Staphylococcus aureus; monosubstance; Sa NRS119; read-out: MIC
Experimental: as §1, §2, §3

[5] = tested on: S. aureus Visa Mu 50 (MRSA, vancomycin intermediate susceptible); assay: MIC, broth microdilution (CLSI), CAMHB; conditions: Staphylococcus aureus; monosubstance; Sa VisaMu50; read-out: MIC
Experimental: as §1, §2, §3

E. cloacae ATCC 13047 [6] = assay: Checkerboard titration of Compound 1 and colistin
Description: (§4) The checkerboard consists of columns in which each well contains the same amount of antibacterial A being over i dilutions along the x-axis, and in rows in which each well contains the same amount of antibacterial B over j dilutions on the y-axis, i.e. serial dilutions of antibacterials A and B, respectively, are titrated in a rectangular fashion.
(§5) The fractional inhibitory concentration (FIC) is a mathematical expression of the effect of the combination of two antibacterial agents A and B. The FICs were calculated as the MIC of antibacterial A and antibacterial B in combination divided by the MIC of antibacterial A or antibacterial B alone.
(§6) The FICs and FIC index, respectively, are calculated according to the following equations:
(§7) FIC(A)=MIC(A in the presence of B)/MIC(A alone)
(§8) FIC(B)=MIC(B in the presence of A)/MIC(B alone)
(§9) The checkerboard titrations were performed three times.

E. coli ATCC 25922 [7] = assay: Checkerboard titration of Compound 1 and colistin
Description: as §4, §5, §6, §7, §8, §9

[8] = tested on: Gram-positive strains tested; assay: MIC testing, statements on the Gram-positive strain panel; conditions: all Gram-positive strains tested; read-out: MIC (inhibitory concentration)
Description: as §1

[9] = tested on: six selected indicator strains; assay: Checkerboard titration, statements on the six indicator strains; conditions: read-out: MIC of Compound 1 alone, checkerboard; strains as worded in the text
Description: as §4, §5, §9

[10] = tested on: E. cloacae NRZ-00239 (VIM-1); assay: MIC, broth microdilution (CLSI), CAMHB; conditions: monosubstance; Ecl NRZ00239
Experimental: as §1, §2, §3

E. coli ATCC 25922 [11] = assay: MIC, broth microdilution (CLSI), CAMHB; conditions: monosubstance; Ec ATCC25922
Experimental: as §1, §2, §3

[12] = tested on: E. coli GNS-2601 (ESBL CTX-M-15); assay: MIC, broth microdilution (CLSI), CAMHB; conditions: monosubstance; Ec GNS2601
Experimental: as §1, §2, §3

[13] = tested on: E. coli NRZ-00302 (metallo β-lactamase NDM-1); assay: MIC, broth microdilution (CLSI), CAMHB; conditions: monosubstance; Ec NRZ00302
Experimental: as §1, §2, §3

[14] = tested on: K. pneumoniae NRZ-00002 (OXA-48); assay: MIC, broth microdilution (CLSI), CAMHB; conditions: monosubstance; Kp NRZ00002
Experimental: as §1, §2, §3

[15] = tested on: K. pneumoniae NRZ-00103 (KPC-2); assay: MIC, broth microdilution (CLSI), CAMHB; conditions: monosubstance; Kp NRZ00103
Experimental: as §1, §2, §3

[16] = tested on: K. pneumoniae NRZ-00535 (VIM-1); assay: MIC, broth microdilution (CLSI), CAMHB; conditions: monosubstance; Kp NRZ00535
Experimental: as §1, §2, §3

P. aeruginosa ATCC 10145 = assay: MIC, broth microdilution (CLSI), CAMHB; conditions: monosubstance; Pa ATCC10145
Experimental: as §1, §2, §3

[17] = tested on: P. aeruginosa NRZ-00425 (VIM-1); assay: MIC, broth microdilution (CLSI), CAMHB; conditions: monosubstance; Pa NRZ00425
Experimental: as §1, §2, §3

P. mirabilis ATCC 9240 = assay: MIC, broth microdilution (CLSI), CAMHB; conditions: monosubstance; Pm ATCC9240
Experimental: as §1, §2, §3

[18] = tested on: P. mirabilis NRZ-00185 (AmpC, type CMY-2); assay: MIC, broth microdilution (CLSI), CAMHB; conditions: monosubstance; Pm NRZ00185
Experimental: as §1, §2, §3

E. coli ATCC 25922 [19] = assay: Time-kill curves; conditions: E. coli ATCC25922; for growth- and kill rates k ('+' = growth, unmarked = kill rate): first four hours
E. coli NRZ-00401 = assay: Time-kill curves; conditions: E. coli NRZ00401; for growth- and kill rates k ('+' = growth, unmarked = kill rate): first four hours
E. coli NRZ-00302 = assay: Time-kill curves; conditions: E. coli NRZ00302; for growth- and kill rates k ('+' = growth, unmarked = kill rate): first four hours
E. coli GNS-2601 = assay: Time-kill curves; conditions: E. coli GNS2601; for growth- and kill rates k ('+' = growth, unmarked = kill rate): first four hours
[20] = tested on: E. coli NRZ-00302 (NDM-1 β-lactamase); conditions: checkerboard
Description: as §4, §5, §6, §7, §8, §9

[21] = tested on: K. pneumoniae NRZ-00535 (VIM-1 β-lactamase); conditions: checkerboard
Description: as §4, §5, §6, §7, §8, §9

[22] = tested on: P. aeruginosa NRZ-00425 (VIM-2 β-lactamase); assay: microbe, parasite or virus in culture; conditions: checkerboard
Description: as §4, §5, §6, §7, §8, §9

[23] = tested on: E. cloacae NRZ-00239 (VIM-1 β-lactamase); assay: Checkerboard titration of Compound 1 and colistin
Description: as §4, §5, §6, §7, §8, §9

[24] = tested on: E. coli ATCC 25922, NRZ-00401, NRZ-00302 and GNS-2601; assay: Time-kill curves, statements on the four E. coli strains; conditions: one- or two-times MIC; four E. coli strains

CC(=O)NC[C@H]1CN(c2ccc(OCC3(O)CCN(c4cc5c(cc4F)c(=O)c(C(=O)O)cn5C4CC4)CC3)c(F)c2)C(=O)O1 [Compound 1, 7-(4-{4-[(5S)-5-(acetylamino-methyl)-2-oxo-oxazolidin-3-yl]-2-fluoro-phenoxymethyl}-4-hydroxy-piperidin-1-yl)-1-cyclopropyl-6-fluoro-4-oxo-1,4-dihydro-quinoline-3-carboxylic]
MIC (E. cloacae ATCC 13047 [1]; Enterobacter cloacae, read-out: MIC): 128 µg/mL (≈ 204 µM)
MIC ([2]; Escherichia coli, read-out: MIC): 16 µg/mL (≈ 25.5 µM)
MIC (E. faecium DSMZ 2146): 0.06 µg/mL (≈ 0.0958 µM)
MIC [3]: 0.06 µg/mL (≈ 0.0958 µM)
MIC (K. pneumoniae ATCC 13883; Klebsiella pneumoniae, read-out: MIC): 128 µg/mL (≈ 204 µM)
MIC [4]: 1 µg/mL (≈ 1.6 µM)
MIC [5]: 0.06 µg/mL (≈ 0.0958 µM)
MIC (E. cloacae ATCC 13047 [6]; Enterobacter cloacae, ATCC13047, checkerboard, read-out: MIC (agent alone)): > 256 µg/mL
MIC (E. coli ATCC 25922 [7]; Escherichia coli, ATCC25922, read-out: MIC (agent alone)): 8 to 16 µg/mL
MIC [8]: < 0.25 µg/mL
MIC [9]: > 256 µg/mL

colistin
MIC (E. cloacae ATCC 13047 [1]): 64 µg/mL
MIC [10]: 0.5 µg/mL
MIC (E. coli ATCC 25922 [11]): 1 µg/mL
MIC [12]: 2 µg/mL
MIC [13]: 1 µg/mL
MIC [2]: 1 µg/mL
MIC (K. pneumoniae ATCC 13883): 0.03 µg/mL
MIC [14]: 0.25 µg/mL
MIC [15]: 0.25 µg/mL
MIC [16]: 0.25 µg/mL
MIC (P. aeruginosa ATCC 10145): 0.5 µg/mL
MIC [17]: 1 µg/mL
MIC (P. mirabilis ATCC 9240): >256 µg/mL
MIC [18]: >256 µg/mL
growth- and kill rates k ('+' = growth, unmarked = kill rate) (E. coli ATCC 25922 [19]; single agent at 1x its MIC): 0.86 h⁻¹
growth- and kill rates k ('+' = growth, unmarked = kill rate) (E. coli ATCC 25922 [19]; single agent at 2x its MIC): 1.04 h⁻¹
Viable counts at 8 h of exposure (E. coli ATCC 25922 [19]; single agent at 1x its MIC): 0 log10 CFU/mL
Viable counts at 8 h of exposure (E. coli ATCC 25922 [19]; single agent at 2x its MIC): 0 log10 CFU/mL
growth- and kill rates k ('+' = growth, unmarked = kill rate) (E. coli NRZ-00401; single agent at 1x its MIC): 2.46 h⁻¹
growth- and kill rates k ('+' = growth, unmarked = kill rate) (E. coli NRZ-00401; single agent at 2x its MIC): 2.53 h⁻¹
Viable counts at 8 h of exposure (E. coli NRZ-00401; single agent at 1x its MIC): 0 log10 CFU/mL
Viable counts at 8 h of exposure (E. coli NRZ-00401; single agent at 2x its MIC): 0 log10 CFU/mL
growth- and kill rates k ('+' = growth, unmarked = kill rate) (E. coli NRZ-00302; single agent at 1x its MIC): 1.63 h⁻¹
growth- and kill rates k ('+' = growth, unmarked = kill rate) (E. coli NRZ-00302; single agent at 2x its MIC): 1.89 h⁻¹
Viable counts at 8 h of exposure (E. coli NRZ-00302; single agent at 1x its MIC): 1.95 log10 CFU/mL
Viable counts at 8 h of exposure (E. coli NRZ-00302; single agent at 2x its MIC): 0 log10 CFU/mL
growth- and kill rates k ('+' = growth, unmarked = kill rate) (E. coli GNS-2601; single agent at 1x its MIC): 1.55 h⁻¹
growth- and kill rates k ('+' = growth, unmarked = kill rate) (E. coli GNS-2601; single agent at 2x its MIC): 1.80 h⁻¹
Viable counts at 8 h of exposure (E. coli GNS-2601; single agent at 1x its MIC): 0 log10 CFU/mL
Viable counts at 8 h of exposure (E. coli GNS-2601; single agent at 2x its MIC): 0 log10 CFU/mL
MIC (agent alone) [20]: 0.5 to 1 µg/mL
MIC (agent alone) [21]: 0.5 to 2 µg/mL
MIC (agent alone) [22]: 2 µg/mL
MIC (agent alone) (E. cloacae ATCC 13047 [6]; checkerboard): 256 µg/mL
MIC (agent alone) [23]: 1 µg/mL
MIC (agent alone) ([23]; listed as col): 0.5 to 1 µg/mL
MIC (agent alone) (E. coli ATCC 25922 [7]): 1 to 2 µg/mL
type of activity in time-kill [24]: bactericidal

From patent publication US20160113921A1, “COMBINATION THERAPY COMPRISING OXAZOLIDINONE-QUINOLONES FOR USE IN TREATING BACTERIAL INFECTIONS” (MORPHOCHEM AKTIENGESELLSCHAFT FÜR KOMBINATORISCHE CHEMIE, priority 2013, published 2016)
